Experimental data reported in EP1119538B1, “DERIVATIVES OF PHENANTRENE FOR MEDICINAL USE AND A PROCESS FOR THEIR PREPARATION” (Ammar, Khodor, priority 1998, dated 2000).

System: intestinal adenocarcinoma cells (lineage CACO-2)
Test: Proliferation inhibition in intestinal adenocarcinoma cells, lineage CACO-2
Assay type: cell-based
Settings: cell lineage CACO-2
Description: Further research has recently been carried out using retinoic acid, sodium butyrate and the invention substances obtained as in Example 1. More specifically, tests were conducted on intestinal adenocarcinoma cells (lineages CACO-2 and HT-29) using isomers of molecular weight 256 - hereinafter referred to simply as "esters 256" - and using the compound of molecular weight 330 corresponding to formula IV, and mixtures mainly containing said compound - hereinafter referred to simply as "HHP" (hydroxy-hydro-phenanthrene). The results were as follows: • 1. The proliferation-inhibiting effect of HHP and butyrate on cell lineage CACO-2 is 80% as compared with 60% for retinoic acid. Inhibition in cell lineage HT-29 treated with HHP of 50µM concentration was 95% by the seventh day. • 2. […] HHP induces in the cell lineages a 3.5 times increase in the number of domes, indicating greater cell differentiation. • 6. […] In CACO-2, alpha 2,6, xyalyl transferase increases 3 times with respect to the control after two weeks' treatment with HHP.

## CCCC(=O)[O-].[Na+] [butyrate, sodium butyrate, reference compound]
  proliferation-inhibiting effect: 80%

## CC1=C(/C=C/C(C)=C/C=C/C(C)=C/C(=O)O)C(C)(C)CCC1 [retinoic acid, reference compound]
  proliferation-inhibiting effect: 60%
